Source: US7160894B2, “Tricyclic compound” (Asahi Kasei Pharma Corporation, priority 2003, dated 2007)
pIC50: −log10 of the molar value.

Experiments:
[1] = system: phosphorylated myosin regulatory light chain in neutrophils; assay: Action on amount of phosphorylated myosin regulatory light chain in the cells (Test Example 1); type: cell-based; settings: Neutrophil, 5 min; human neutrophils, reaction at 25° C. for 5 minutes; read-out: concentration at which the phosphorylation of myosin regulatory light chain is inhibited (IC50)
Procedure: A volume of 50 to 100 ml of peripheral blood collected from healthy volunteers was centrifuged by using Mono-Poly separator solution (Dainippon Pharmaceutical) to prepare a neutrophil containing fraction. The neutrophils were washed with PBS(−) and resuspended in Hanks' Balanced Salt Solution (HBSS+, Gibco) to prepare a cell suspension (8×10^6/ml). The cell suspension was diluted to 5×10^6/ml, introduced into Eppendorf tubes in a volume of 0.4 ml each, then 0.1 ml each of solutions of a test compound at various concentrations were added to the suspension and allowed to react at 25° C. for 5 minutes. After the reaction, 0.1 ml of trichloroacetic acid solution was added to each reaction, the reaction mixture was gently shaken and centrifuged at 12,000 rpm (4° C., 5 minutes), and the supernatant was removed. Subsequently, 3 μl of 1 M Tris solution was added to the residue, the mixture was further mixed with 50 μl of extraction buffer (8 M urea, 0.02% 2-mercaptoethanol, 0.002% bromophenol blue) and left stand at room temperature for 1 hour. Then, the reaction mixture was loaded on a spin column (0.45 μm, Millipore) to remove the insoluble solids and a sample buffer for SDS polyacrylamide gel electrophoresis (25 mM, Tris-HCl pH 6.8, 2.5% 2-mercaptoethanol, 2% sodium dodecylsulfate, 5% sucrose, 0.002% bromophenol blue as final concentrations) was added, and 10 μl of each sample was subjected to electrophoresis.
The gel after the electrophoresis was blotted on a nitrocellulose membrane (BioRad), blocked with 5% skim milk, and reacted successively with antibodies pLC1 (Sakurada K. et al, Am. J. Physiol., 274, C1563–C1572 (1998)), which specifically recognize the phosphorylated myosin regulatory light chain, and donkey anti-mouse IgG (Chemicon) conjugated with horseradish peroxidase. The band of the phosphorylated myosin regulatory light chain was detected on a film by using ECL Plus Kit (Amersham Pharmacia Biotech). This band was subjected to quantification using a densitometer. By using this value, the inhibitory ratio (%) for phosphorylation of the myosin regulatory light chain was calculated by using the following equation. Phosphorylation inhibition ratio (%)=1−(Band intensity of phosphorylated myosin regulatory light chain with addition of the test compound/Band intensity of phosphorylated myosin regulatory light chain without addition of the test compound)×100
Further, the phosphorylation inhibition ratio was calculated with changing the concentrations of the test compound, and a compound concentration providing an inhibition ratio of 50% was obtained as IC50.

[2] = system: intraocular pressure; assay: Intraocular pressure reducing action (Test Example 4); type: in vivo, Japanese white rabbit; settings: rabbit, 50 μl of aqueous solution dropped to the left eye
Procedure: A Japanese white rabbit having a body weight of about 2 kg was placed in a positioner and naturalized for one week before the experiment. An ophthalmologic local anesthesant (Benoxil) was administered to the left eye, and then intraocular pressure was measured by using a tonometer (Classic 30, Solan). The initial value of the intraocular pressure was measured, then 50 μl of an aqueous solution of a test compound was dropped to the left eye at various concentrations, and the intraocular pressure was measured with passage of time.

[3] = system: neutrophils; assay: Neutrophil migration inhibitory action, Boyden Chamber, FMLP (Test Example 6); type: cell-based; settings: 0.5 h, human neutrophils, FMLP 1 μM, 37° C., 30 minutes, read-out: concentration at which the migration of neutrophils is inhibited (IC50)
Procedure: Neutrophils were isolated from 50 to 100 ml of peripheral blood collected from healthy human donors by the method described in Test Example 1 to obtain a cell suspension (8×10^6/ml). Subsequently, solutions of a test compound at various concentrations were introduced into wells of a 96-well plate in a volume of 125 μl per well, the cell suspension of an equivalent volume was added to it and the plate was preincubated at room temperature for 5 minutes. During the preincubation, FMLP (1 μM, Sigma) solution was added to the lower chamber to set Boyden Chamber, the preincubated cell suspension was added to the upper chamber in a volume of 200 μl per well, and the cells were allowed to migrate at 37° C. under 5% carbon dioxide for 30 minutes. The filter after the migration was collected, and the non-migrated cells adhered to the surface that faced the upper chamber were carefully wiped off. Then, the migrated cells on the back surface were stained with DifQuick dye solution (International Reagents), washed with water and dried, and then absorbance was measured at 595 nm. The inhibition ratio against migration (%) of a test compound was calculated by using the following equation: Migration inhibition ratio (%)=(1−Absorbance of the group with addition of test compound/Absorbance of the group without addition of test compound)×100
Further, the migration inhibitory ratio was calculated with changing the test compound concentration, and a compound concentration providing an inhibition ratio of 50% was obtained as IC50. The compounds of the present invention obtained in Examples 1, 11, 12, 13, 14, 15, 16, 18, 19, 20, 21, 22, 24, 31, 41, 42, 47, 52, 53, 54, 55, 56, 57, 58, 59, 60, 62, 63, 64, 65, 66, 67, 68, 72, 73, 74, 75, 76, 77, 78, 79, 80, 81, 82, 83, 84, 87, 88, 89, 90, and 91 inhibited the migration of neutrophils at a concentration of 40 μM or less, and further, the compounds of Examples 1, 11, 12, 13, 14, 15, 19, 21, 22, 24, 31, and 41 inhibited the migration of neutrophils at a concentration of 10 μM or less. Further, trans-benzyl-[4-(2,3-dihydro-1,5-diazaphenalen-1-yl)cyclohexyl]amine inhibited the migration of neutrophils at a concentration of 40 μM or less.

[4] = system: thoracic aorta constricted with phenylephrine; assay: Vasoconstriction inhibitory action (Test Example 2); design: species or system Rats (Wistar); settings: test compound 1 μM; rat thoracic aorta constricted with phenylephrine 1 μM
Description: Rats (Wistar, 11-week old) were bleeded to death and laparotomized to take out the thoracic aorta. That aorta was cut into a ring of a length of about 3 mm in a conventional manner (Asano, T., et al., J. Pharmacol. Exp. Ther., 241, pp. 1033–1040 (1987)) and hung in 10-ml organ bath filled with Krebs-Hensright nutrient solution bubbled with a mixed gas of 95% O2 and 5% CO2. One end of the blood vessel was connected to an isometric transducer (FD Pickup TB-912T, Nihon Kohden) and applied with 2.5 g of resting tension, and constriction and relaxation reactions of the aorta were recorded.
The aorta was constricted with phenylephrine (1 μM, Sigma) and then added with a test compound (1 μM), and the vasoconstriction inhibitory action thereof was observed. The vasoconstriction inhibitory actions of the test compounds were calculated as relaxation ratios, which were based on the vasoconstriction with phenylephrine observed immediately before the addition of the test compounds taken as 100%.

[5] = system: cerebral hippocampal neurons; assay: Neurite outgrowth action (Test Example 5); type: cell-based, Sprague-Dawley rats; settings: rat hippocampal neurons, 24 hours after addition
Procedure: From 18 day-old Sprague-Dawley rats, cerebral hippocampal neurons were prepared according to the method of Neuman et al. (Neuman, H. R. et al., J. Neurosci., 22, pp. 854–862, 2002). The prepared neurons were cultured for 24 hours according to the method of Tanaka et al. (Tanaka, H. et al., J. Cell Biol., 158 (2), pp. 321–329, 2002), then the medium was exchanged with fresh medium, and test medicaments of various concentrations or equivalent amounts of vehicle were added. Twenty-four hours after the addition of the medicaments, neurite length of each neuron was measured for the medicament-added group and the no-addition group, and compared. The neurite length was evaluated according to the method of Neuman et al. (Neuman, H. R. et al., J. Neurosci., 22, pp. 854–862, 2002).

[6] = system: lipopolysaccharide-induced pulmonary inflammation; assay: Pulmonary inflammation suppressing action, LPS-induced (Test Example 8); type: in vivo, BALB/c female mice; settings: mice, LPS inhalation, test compound by inhalation over 10 minutes, 3 hours after administration
Description: According to Gonzales de Moraes, V L., et al., Br. J. Pharmacol., 123, pp. 631–6, 1998, suppressing action on pulmonary inflammation was studied. BALB/c female mice (7-week old) were used for the test, as the compound administration group and positive control group, each consisting of 7 mice, as well as the negative control group consisting of 5 mice. For induction of inflammation, a 0.03% physiological saline solution of a lipopolysaccharide (LPS, a mixture derived from Escherichia coli O55 and B5 strains, Sigma) was used. A test compound was dissolved in physiological saline to prepare solutions of various concentrations. The test animals were first inhaled with the aforementioned lipopolysaccharide solution for 10 minutes by using a pressurization type nebulizer (PARI-IS2) to induce inflammation. Then, 1 minute after the completion of the inhalation of the lipopolysaccharide solution, the animals were administered with a solution of test compound at various concentrations over 10 minutes by inhalation using the aforementioned nebulizer. The mice of the positive control group were administered with the same volume of physiological saline instead of the test compound solution over 10 minutes by inhalation. Three hours after the administration of the test compound, pulmonary cavities of the test animals were washed with physiological saline, and the total infiltrated leucocyte (WBC) number was counted.

Row | Compound | pIC50 [1] | intraocular pressure reducing action [2] | pIC50 [3] | vasoconstriction inhibitory action (relaxation ratio) [4] | neurite outgrowth (neurite length) [5] | pulmonary inflammation, total infiltrated leucocyte (WBC) number [6]
1 | CN(C)[C@H]1CC[C@H](N2CCc3cncc4cccc2c34)CC1 [Example 53, trans-[4-(2,3-dihydro-1,5-diazaphenalen-1-yl)cyclohexyl]dimethylamine] | ≥ 4.40 | significant intraocular pressure reducing action | ≥ 4.40 | – | – | –
2 | FC1CNCCC1N1CCc2cncc3cccc1c23 (stereo not shown) [Example 54, 1-(3-fluoropiperidin-4-yl)-2,3-dihydro-1H-1,5-diazaphenalene] | ≥ 4.40 | significant intraocular pressure reducing action | ≥ 4.40 | – | – | –
3 | c1ccc(CN[C@H]2CC[C@H](N3CCc4cncc5cccc3c45)CC2)cc1 [trans-benzyl-[4-(2,3-dihydro-1,5-diazaphenalen-1-yl)cyclohexyl]amine] | ≥ 4.40 | – | ≥ 4.40 | – | – | –
4 | CN[C@H]1CC[C@H](N2CCc3cncc4cccc2c34)CC1.Cl [Example 41] | – | significant intraocular pressure reducing action | – | significant vasoconstriction inhibitory action | significant neurite outgrowth axis extension | significantly improved the pathological condition
5 | Cl.O=C(O)CCN1CCC(N2CCc3cncc4cccc2c34)CC1 [Example 16] | – | significant intraocular pressure reducing action | – | significant vasoconstriction inhibitory action | significant neurite outgrowth axis extension | –
6 | O=C1CCN1CCN1CCC(N2CCc3cncc4cccc2c34)CC1 [Example 60, 1-{2-[4-(2,3-dihydro-1,5-diazaphenalen-1-yl)piperidin-1-yl]ethyl}azetidin-2-one] | ≥ 4.40 | significant intraocular pressure reducing action | ≥ 4.40 | – | – | –
7 | CC(=O)N(C)CCN1CCC(N2CCc3cncc4cccc2c34)CC1 [Example 59, N-{2-[4-(2,3-dihydro-1,5-diazaphenalen-1-yl)piperidin-1-yl]ethyl}-N-methylacetamide] | ≥ 4.40 | significant intraocular pressure reducing action | ≥ 4.40 | – | – | –
8 | COCCN1CCC(N2CCc3cncc4cccc2c34)CC1.Cl [Example 19] | – | significant intraocular pressure reducing action | – | significant vasoconstriction inhibitory action | significant neurite outgrowth axis extension | significantly improved the pathological condition
9 | CC(=O)NCCN1CCC(N2CCc3cncc4cccc2c34)CC1 [Example 42] | ≥ 4.40 | significant intraocular pressure reducing action | ≥ 4.40 | – | – | –
